The text below walks through data of patent US8598204B2, “1,2-dihydro-2-oxoquinoline compounds as 5-HT4 receptor ligands” (Suven Life Sciences Limited, priority 2009, dated 2013).

Data set [1] can be described thus: Rodent pharmacokinetic study. The class given is in vivo. The conditions noted are these: Wistar, rat, plasma, Wister/Male rats, 5 mg/kg; for bioavailability: Oral versus Intravenous; for AUC(0-t) / Cmax / Tmax / half-life: vehicle Water. As to the method:
Male Wister rats (230-280 grams) obtained from NIN (National Institute of Nutrition, Hyderabad, India) was used as an experimental animal. Three to five animals were housed in each cage. One day prior to dosing day, male wistar rats (225-250 grams) were anesthetized with isoflurane for surgical placement of jugular vein catheter. Animals were kept fasted over night and maintained on a 12 hours light/dark cycle. Three rats were dosed NCE (5 mg/Kg) orally and intravenously on day 0 and day 2.
At each time point blood was collected by jugular vein. Plasma was stored frozen at −20° C. until analysis. The concentrations of the NCE compound in plasma were determined using LC-MS/MS method. Schedule time points: Pre dose 0.25, 0.5, 1, 1.5, 2, 3, 4, 6, 8, 10, 12 and 24 hours after dosing (n=3). The NCE compounds were quantified in plasma by validated LC-MS/MS method using solid phase extraction technique. NCE compounds were quantified in the calibration range of 2-2000 ng/mL in plasma. Study samples were analyzed using calibration samples in the batch and quality control samples spread across the batch.
Pharmacokinetic parameters Cmax, Tmax, AUCt, T1/2 and Bioavailability were calculated by non-compartmental model using software WinNonlin version 5.0.1.

Data set [2] can be described thus: Rodent brain penetration study. The conditions noted are these: Wistar, rat; Wister/Male rats, 10 mg/kg, Oral, vehicle Water; brain/plasma; read-out: Steady State Brain Penetration (Cb/Cp). The class given is in vivo. The method, then:
Male Wister rats (230-280 grams) obtained from NIN (National Institute of Nutrition, Hyderabad, India) was used as an experimental animal. Three animals were housed in each cage. Animals were given water and food ad libitum throughout the experiment, and maintained on a 12 hours light/dark cycle.
Brain penetration was determined in discrete manner in rats. One day prior to dosing day, male wistar rats (225-250 grams) were acclimatized. After acclimatization the rats were grouped according to the weight in each group, 3 animals were kept in individual cage and allowed free access to food and water. At each time point (0.5, 1, and 2 hours) n=3 animals were used.
NCE compound was dissolved in water and administered orally at (free base) 10 mg/kg. Blood samples were removed via, cardiac puncture by using isofurane anesthesia the animals were sacrificed to collect brain tissue. Plasma was separated and Brain samples were homogenized and stored frozen at −20° C. until analysis. The concentrations of the NCE compound in plasma and Brain were determined using LC-MS/MS method.
The NCE compounds were quantified in plasma and brain homogenate by validated LC-MS/MS method using solid phase extraction technique. NCE compounds were quantified in the calibration range of 1-500 ng/mL in plasma and brain homogenate. Study samples were analyzed using calibration samples in the batch and quality control samples spread across the batch. Extents of brain-blood ratio were calculated (Cb/Cp).

Data set [3] addresses T1, recombinant human 5-HT4 receptor (Homo sapiens, UniProt Q13639).
T1 construct: expressed in transfected cells
The data set is described as follows: Determination of EC50 values for 5-HT4 receptor (CRE-luciferase reporter, CHO cells). The data set is classed as cell-based. The conditions noted are these: stable CHO cell line expressing recombinant human 5-HT4 receptor and pCRE-Luc reporter; 4 hours incubation; luciferase activity. As to the method: A stable CHO cell line expressing recombinant human 5-HT4 receptor and pCRE-Luc reporter system was used for cell-based assay. The assay offers a non-radioactive based approach to determine binding of a compound to GPCRs. In this specific assay, the level of intracellular cyclic AMP which is modulated by activation or inhibition of the receptor is measured. The recombinant cells harbor luciferase reporter gene under the control of cAMP response element.
The above cells were grown in 96 well clear bottom white plates in Hams F12 medium containing 10% fetal bovine serum (FBS). Prior to the addition of compounds or standard agonist, cells were serum starved overnight. Increasing concentrations of test compounds were added in OptiMEM medium to the cells. The incubation was continued at 37° C. in CO2 incubator for 4 hours. Medium was removed and cells were washed with phosphate buffered saline. The cells were lysed and luciferase activity was measured in a Luminometer. Luminescence units were plotted against the compound concentrations using Graphpad software. EC50 values of the compounds were defined as the concentration required in stimulating the luciferase activity by 50%.

Data set [4] relates to novel object recognition (cognition) in rats. The data set is described as follows: Object recognition task model. The data set is classed as in vivo, rat. To be noted: 10 mg/kg p.o.; for Exploration time mean ± S.E.M, Familiar object / Exploration time mean ± S.E.M, Novel object: choice trial T2 24 hours after T1. As to the method: The cognition-enhancing properties of compounds of this invention were estimated using a model of animal cognition: the object recognition task model.
Male Wister rats (230-280 grams) obtained from N. I. N. (National Institute of Nutrition, Hyderabad, India) was used as experimental animals. Four animals were housed in each cage. Animals were kept on 20% food deprivation before one day and given water ad libitum throughout the experiment and maintained on a 12 hours light/dark cycle. Also the rats were habituated to individual arenas for 1 hour in the absence of any objects.
One group of 12 rats received vehicle (1 mL/Kg) orally and another set of animals received compound of the formula (I) either orally or i.p., before one hour of the familiar (T1) and choice trial (T2).
The experiment was carried out in a 50×50×50 cm open field made up of acrylic. In the familiarization phase (T1), the rats were placed individually in the open field for 3 minutes, in which two identical objects (plastic bottles, 12.5 cm height×5.5 cm diameter) covered in yellow masking tape alone (a1 and a2) were positioned in two adjacent corners, 10 cm. from the walls. After 24 hours of the (T1) trial for long-term memory test, the same rats were placed in the same arena as they were placed in (T1) trial. Choice phase (T2) rats were allowed to explore the open field for 3 minutes in presence of one familiar object (a3) and one novel object (b) (Amber color glass bottle, 12 cm high and 5 cm in diameter). Familiar objects presented similar textures, colors and sizes. During the T1 and T2 trial, explorations of each object (defined as sniffing, licking, chewing or having moving vibrissae whilst directing the nose towards the object at a distance of less than 1 cm) were recorded separately by stopwatch. Sitting on an object was not regarded as exploratory activity, however, it was rarely observed.
T1 is the total time spent exploring the familiar objects (a 1+a2).
T2 is the total time spent exploring the familiar object and novel object (a3+b).
The object recognition test was performed as described by Ennaceur, A., Delacour, J., 1988, A new one-trial test for neurobiological studies of memory in rats—Behavioural data, Behav. Brain Res., 31, 47-59.

T1 sequence (Q13639 whole entry): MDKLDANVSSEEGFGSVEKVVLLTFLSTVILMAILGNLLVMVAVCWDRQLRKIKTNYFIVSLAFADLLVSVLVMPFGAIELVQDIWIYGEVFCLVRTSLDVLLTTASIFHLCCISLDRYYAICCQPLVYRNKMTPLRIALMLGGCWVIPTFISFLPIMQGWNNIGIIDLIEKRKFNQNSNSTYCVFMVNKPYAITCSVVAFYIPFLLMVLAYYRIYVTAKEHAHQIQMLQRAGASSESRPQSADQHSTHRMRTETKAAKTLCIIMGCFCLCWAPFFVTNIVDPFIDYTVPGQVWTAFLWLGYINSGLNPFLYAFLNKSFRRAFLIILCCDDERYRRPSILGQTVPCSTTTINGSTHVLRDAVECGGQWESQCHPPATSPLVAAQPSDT

Usually bioavailability stands for the share of a dose that reaches the circulation, judged against a reference dose that is usually intravenous. A lower bioavailability goes with little systemic uptake. Usually AUC(0-t) stands for the area under the concentration-time curve up to a stated or last time point. Higher therefore signals high exposure. By Cmax is commonly meant the highest concentration seen after dosing. The Tmax is the time at which the peak concentration occurs. As usually defined, the half-life is how long it takes for the measured level to halve. As a reminder, the EC50 is the concentration giving half of the maximal effect. Consider `CC(C)n1c(=O)c(C(=O)NCCCN2C3CC4CC(C3)CC2C4)c(O)c2ccccc21.Cl` [Example 1, N-[(2-Azatricyclo[3.3.1.1^3,7]dec-2-yl)propyl]-4-hydroxy-1-isopropyl-2-oxo-1,2-dihydroquinoline-3-carboxamide hydrochloride], for which, in data set [1], the bioavailability came to 26 ± 11%. Besides, in data set [1] (Intravenous), the area under the curve AUC(0-t) stood at 3.02 ± 0.98 µg·h/mL, the concentration peaked (Cmax) at 1.17 ± 0.241 µg/mL, the Tmax worked out at 0.08 h and the half-life is 1.88 ± 1.15 h. Moreover, in data set [1] (Oral), the AUC(0-t) is 0.801 ± 0.105 µg·h/mL, the Cmax came to 0.211 ± 0.032 µg/mL, the Tmax turned out to be 0.83 ± 0.29 h and the half-life is 2.37 ± 0.6 h. In addition, in data set [2], the Kp amounted to 0.2 ± 0.04. Besides, in data set [3], the concentration for a half-maximal effect (EC50) amounted to 0.23 µM. In addition, in data set [4], the Inference result is on record as “Active”; the “Exploration time mean ± S.E.M, Familiar object” value was 7.87 ± 0.83 s; the “Exploration time mean ± S.E.M, Novel object” value came out at 12.56 ± 1.31 s.
The molecule `CC(C)n1c(=O)c(C(=O)NCCCN2C3CC4CC2CC(O)(C4)C3)c(O)c2ccccc21` [Example 4, N-[(5-Hydroxy-2-azatricyclo[3.3.1.1^3,7]dec-2-yl)propyl]-4-hydroxy-1-isopropyl-2-oxo-1,2-dihydroquinoline-3-carboxamide] yielded a bioavailability in data set [1] of 34 ± 6%. Besides, in data set [1] (Intravenous), the AUC(0-t) is 1.66 ± 0.498 µg·h/mL, the concentration peaked (Cmax) at 0.803 ± 0.062 µg/mL, the Tmax was determined as 0.08 h and the half-life is 2.64 ± 0.89 h. In addition, in data set [1] (Oral), the AUC(0-t) came to 0.547 ± 0.126 µg·h/mL, the Cmax came out at 0.216 ± 0.078 µg/mL, the Tmax is 0.33 h and the half-life was 1.8 ± 0.36 h. Further, the Kp in data set [2] is 0.66 ± 0.1. Also, the EC50 in data set [3] stood at 0.421 µM. Further, in data set [4], the Inference result is on record as “Active”; the “Exploration time mean ± S.E.M, Familiar object” value is 6.72 ± 1.92 s; the “Exploration time mean ± S.E.M, Novel object” value amounted to 11.86 ± 1.65 s.
Turning to `CC(C)n1c(=O)c(C(=O)NC23CC4CC(C2)N(C)C(C4)C3)c(O)c2ccccc21` [Example 14, N-(2-Methyl-2-azatricyclo[3.3.1.1^3,7]dec-5-yl)-4-hydroxy-1-isopropyl-2-oxo-1,2-dihydro-quinoline-3-carboxamide], the bioavailability in data set [1] was found to be 28 ± 3%. In data set [1] (Intravenous), the area under the curve AUC(0-t) was determined as 0.82 ± 0.247 µg·h/mL, the concentration peaked (Cmax) at 0.523 ± 0.057 µg/mL, the time to peak (Tmax) is 0.08 h and the half-life was 3.31 ± 1.47 h. Also, in data set [1] (Oral), the AUC(0-t) amounted to 0.223 ± 0.05 µg·h/mL, the Cmax was determined as 0.067 ± 0.017 µg/mL, the Tmax was 0.42 ± 0.14 h and the half-life was 1.67 ± 0.27 h. In data set [2], the Kp was 2.97 ± 0.94. Further, the half-maximal effective concentration (EC50) in data set [3] came out at 0.307 µM.
